# In BindingDB's records for doi:10.1021/jm00101a008 (Centre De Recherche De Vitry-Alfortville, 1992):
# Experiments:
# [1] = molecular target: Leukotriene B4 receptor (Cavia porcellus); experiment: Inhibition of [3H]LTB4 binding to Leukotriene B4 receptor in the guinea pig spleen membranes.
# [2] = molecular target: Leukotriene B4 receptor (Cavia porcellus); experiment: as above; remark: listed apart in the source
IC50 [1],IC50 [2],Structure (SMILES)
50 nM,,O=C(O)CCCCOc1cc(-c2ccccc2)cc(-c2ccccc2)n1
4 nM,,CC(CCCCOc1cc(-c2ccccc2)cc(-c2ccccc2F)n1)C(=O)O (centres undefined)
,160 nM,NC(=O)CCCCCOc1cc(-c2ccccc2)cc(-c2ccccc2)n1
25 nM,,O=C(O)CCCCCCOc1cc(-c2ccccc2)cc(-c2ccccc2)n1
40 nM,,COC(=O)CCCCCOc1cc(-c2ccccc2)cc(-c2ccccc2)n1
4.2 nM,,CC(CCCCOc1cc(-c2ccc3c(c2)OCO3)cc(-c2ccccc2)n1)C(=O)O (centres undefined)
1 nM,,O=C(O)CCCCCOc1cc(-c2ccc3c(c2)OCO3)cc(-c2ccccc2)n1
,300 nM,O=C(O)CCCOc1cc(-c2ccccc2)cc(-c2ccccc2)n1
,1000 nM,COc1ccc(-c2cc(-c3ccccc3)cc(OCCCCCC(=O)O)n2)cc1
,300 nM,Cc1ccc(-c2cc(-c3ccccc3)cc(OCCCCCC(=O)O)n2)cc1
6.6 nM,,CC(C)(CCCCOc1cc(-c2ccc(N)cc2)cc(-c2ccccc2)n1)C(=O)O
4 nM,,CC(CCCCOc1cc(-c2ccccc2)cc(-c2ccccc2)n1)C(=O)O (centres undefined)
22 nM,,CC(C)(CCCCCCOc1cc(-c2ccccc2)cc(-c2ccccc2)n1)C(=O)O
200 nM,,O=C(O)CCCCCOc1cc(-c2ccccc2Cl)cc(-c2ccccc2)n1
50 nM,,O=C(O)CCCCCOc1cc(-c2ccc([N+](=O)[O-])cc2)cc(-c2ccccc2)n1
150 nM,,O=C(O)CCCCCOc1cc(-c2ccc(NC(=O)C(F)(F)F)cc2)cc(-c2ccccc2)n1
,700 nM,N#CCCCCCOc1cc(-c2ccccc2)cc(-c2ccccc2)n1
2 nM,,CC(CCCCOc1cc(-c2ccc3c(c2)OCO3)cc(-c2ccccc2Cl)n1)C(=O)O (centres undefined)
3 nM,,O=C(O)CCCCCOc1cc(-c2ccccc2)cc(-c2ccccc2)n1
